Measurements as given in US20220400669A1, “COMPOUNDS AND METHODS FOR PROMOTING PLANT GROWTH” (King Abdullah University of Science and Technology, priority 2019, published 2022).
Entries after “also recorded” stand apart in the source; their conditions may differ.

Columns and labels:
Type in all cases: in vivo
[1] = test system: Striga hermonthica; test: Striga hermonthica infection of rice in pots; conditions: 5 μM, rice cv IAC-165 in pots with Striga infested soil (FIG. 13)
Description: Pots experiment was conducted and slightly adapted from the protocol as described previously About 20 mg (ca 8000) Striga seeds were thoroughly mixed in 1.5 L sand and soil mixture (1:1) and added in 3 L perforated plastic pot containing 0.5 L clean soil in the bottom. The pots were kept in greenhouse-controlled conditions at 35° C. under moisture to preconditioned Striga seeds for 10 days. On 11th day, one week old five rice seedlings (cv IAC165) were planted in each pot. After three days of rice planting, each pot was first irrigated with 250 ml phosphorus deficient Hoaglands nutrient solution and after four hours of irrigation 25 ml formulated MZ3, MZ5 and Zaxinone (100 μM) were sprayed. Next day, each pot was again supplied with 250 ml nutrient solution to make the final concentration of each compound to 5 μM and to move the compound to rice seedlings. Pots with and without Striga seeds were kept as the negative and positive control. Each compound was applied twice in a week up to four weeks. The rice plants were grown under normal growth condition (30° C., 70% RH) for eight weeks. The number of emerged Striga plants in each pot were counted.

[2] = test system: Gigaspora margarita spores; test: Gigaspora margarita spores germination
Description: Spores were sterilized in a solution of Streptomycine sulphate (0.03% W/V) and Chloramine T (3% W/V) and germinated in 200 μl of MZ3 and MZ5 at 5 μM or 50 nM, GR24 10 nM or a solution of Water/Acetone (12.5 μl acetone in 25 ml water). For each treatments 96 sterilized spores were placed individually in the wells of a multi-well plate and treated with freshly prepared solutions at the beginning of the experiment and after 3 days. Spores were germinated in the dark at 30° C. and the germination rate was evaluated after 3 days and 7 days.

[3] = test system: Striga hermonthica seeds; test: Striga hermonthica seed germination bioassay with root exudates of treated rice seedlings; conditions: for decrease of Striga seed germination rate: exudates of rice seedlings treated with 5 μM compound, Pi starvation (FIG. 2)
Description: For SL analysis, one-week-old seedlings were transferred into 50 ml falcon tubes (two seedlings per tube), containing half-strength Hoagland nutrient solution with K2HPO4.2H2O (+Pi), and grown in the biochamber for one week. Rice seedlings were then subjected to phosphate deficiency (−Pi) for another one week. On the day of root exudates collection, rice seedlings were first treated with 5 μM Zaxinone, or MZ compounds for 6 h, and then root exudates and root tissues were collected from each tube for LC-MS/MS analysis and Striga bioassays. Striga hermonthica seed germination bioassays were conducted by following the procedure as described previously. About 50-100 sterilized Striga seeds were spread on a glass fiber filter paper disc. Then 12 discs with Striga seeds were put on a sterilized filter paper, moistened with 3 ml sterilized water in a 90 mm petri plate. The plates were sealed with parafilm and cover with aluminum foil. All the plates were kept at 30° C. for 10 days for pre-conditioning. On 11th day, six dry discs with pre-conditioned seeds were selected and put in a 90 mm petri-dish. A filter paper ring moistened with 0.9 ml sterile MilliQ water was placed in the plate. The root exudates collected from Zaxinone or MZ compounds treated rice seedlings was applied at 50 μl on each six disc. Sterile MilliQ water and standard SL analog GR24 (2.5 μM) were included as a negative and positive control, respectively. After application, Striga seeds were incubated in dark at 30° C. for 24 hours. Germination (seeds with radicle emerging through seed coat) was scored under a binocular microscope, and germination rate (%) was calculated.

[4] = test system: strigolactones (4-deoxyorobanchol, orobanchol) release; test: LC-MS/MS quantification of SLs in rice root exudates; conditions: 5 μM; for SL level of the root exudate: wild-type rice seedlings, Pi-starvation, 6 h, compared with Zaxinone (FIGS. 19, 20A-20B); for SL level / release in root exudates (4-DO, Oro): Pi starvation, in comparison with MZ1 and mock control (FIGS. 21A-21C)
Description: For SL analysis, one-week-old seedlings were transferred into 50 ml falcon tubes (two seedlings per tube), containing half-strength Hoagland nutrient solution with K2HPO4.2H2O (+Pi), and grown in the biochamber for one week. Rice seedlings were then subjected to phosphate deficiency (−Pi) for another one week. On the day of root exudates collection, rice seedlings were first treated with 5 μM Zaxinone, or MZ compounds for 6 h, and then root exudates and root tissues were collected from each tube for LC-MS/MS analysis and Striga bioassays.
For the quantification of SLs in rice root exudates, 50 ml of root exudates spiked with 0.672 ng of D6-5-deoxystrigol, was brought on a 500 mg/3 ml fast SPE C18 column preconditioned with 6 ml of methanol and 3 ml of water. After washing with 3 ml of water, SLs were eluted with 5 ml of acetone. The 4-deoxyorobanchol fraction (acetone-water solution) was concentrated to SL aqueous solution (˜500 μl), followed by the extraction with 1 ml of ethyl acetate. 750 μl of SLs enriched organic phase was then transferred to 1.5 ml tube and evaporated to dryness under vacuum. The dried extract was dissolved in 100 μl of acetonitrile:water (25:75, v:v) and filtered through a 0.22 µm filter for LC-MS/MS analysis.

[5] = test system: SL biosynthesis genes D27, CCD7, CCD8, CO; test: qRT-PCR transcript analysis of SL biosynthesis genes in rice roots; conditions: 5 μM; for transcript levels of SL biosynthesis enzymes D27, CCD7, CCD8 and CO: wild-type rice seedlings, Pi-starvation, 6 h
Description: For transcript analysis, one-week-old seedlings were grown hydroponically in half-strength modified Hoagland nutrient solution with K2HPO4.2H2O (+Pi) and without K2HPO4.2H2O (+Pi) (−Pi) for 7 days. Seedlings were further treated with zaxinone or MZ compounds for 6 h, and tissues were collected.
Roots of rice seedling were ground and homogenized in liquid nitrogen, and total RNA was isolated using a Direct-zol RNA Miniprep Plus Kit following the manufacturer's instructions (ZYMO RESEARCH; USA). cDNA was synthesized from 1 μg of total RNA using iScript cDNA Synthesis Kit (BIO-RAD Laboratories, Inc, 2000 Alfred Nobel Drive, Hercules, Calif.; USA) according to the instructions in the user manual. The gene expression level was detected by real-time quantitative RT-PCR (qRT-PCR) which was performed using SYBR Green Master Mix (Applied Biosystems; www.lifetechnologies.com) in a CFX384 Touch™ Real-Time PCR Detection System (BIO-RAD Laboratories, Inc, 2000 Alfred Nobel Drive, Hercules, Calif.; USA). The gene expression level was calculated by normalization of a housekeeping gene in rice, Ubiquitin (OsUBQ) (Table 1). The relative gene expression level was calculated according to 2-^ΔΔCT method.

[6] = LC-MS analysis of rice plants fed with the mimics; conditions: data not shown; for conversion into the methoxy mimic (MZ3 or MZ5) in rice plants: rice plants fed with the mimic
[7] = test system: wild-type rice plants; test: Rice phenotypes in soil (rhizotron system); conditions: 5 μM
Description: For testing MZ3 and MZ5 on rice phenotypes in the rhizotron system (48 cm×24 cm×5 cm), three-day-old seedlings were grown in soil with half-strength modified Hoagland nutrient solution containing 0.4 mM K2HPO4.2H2O (+Pi) and 5 μM zaxinone for two weeks. The solution was changed every other day, adding the chemical at each renewal. To increase the compounds stability, 1 μl/ml emulsifier (cyclohexanone+Atlas […] kindly provided by a person […] of CRODA, Gouda; The Netherlands) was added into Hoagland nutrient solution. Root surface area was analyzed with the ImageJ software.

[8] = roots and root exudates, Pi-starved WT rice, 6 hours

CC(=O)/C=C/C=C(C)/C=C/C1=C(C)CC(O)CC1(C)C (stereo in doubt) [Zaxinone, reference compound]
reduction of the number of emerging Striga plants compared to the untreated control [1]: 42% | spores germination ([2]; Zaxinone, after 3 and 7 days): did not affect | decrease of Striga seed germination rate [3]: around 29%

CC(=O)c1cccc(-c2cccc(-c3cccc(-c4cccc(-c5cccc(-c6ccc(C)cc6)c5)c4)c3)c2)c1 [MZ7]
SL level of the root exudate [4]: did not show significant activity

CC(=O)c1cccc(-c2cccc(-c3ccc(O)cc3)c2)c1 [MZ4, 1-(4″-hydroxy-[1,1′:3′,1″-terphenyl]-3-yl)ethan-1-one]
transcript levels of SL biosynthesis enzymes D27, CCD7, CCD8 and CO [5]: downregulating; also recorded: reduced | effect on Striga seed germination ([3]; exudates of rice plants treated at 5 μM, Pi starvation): did not suppress | SL level / release in root exudates (4-DO, Oro) [4]: tendency to reduce | SL level of the root exudate [4]: did not affect | conversion into the methoxy mimic (MZ3 or MZ5) in rice plants [6]: not detected

CC1=C[C@H](O/C=C2/C(=O)O[C@@H]3c4ccccc4C[C@H]23)OC1=O [GR24, reference compound]
spore germination rate ([2]; GR24 10 nM): highest

CC(=O)/C=C/c1cccc(-c2ccc(O)cc2)c1 [MZ1]
SL level of the root exudate [4]: did not show significant activity

COc1ccc(-c2cccc(-c3cccc(C(C)=O)c3)c2)cc1 [MZ5]
CCD7 and CO transcript level compared with Zaxinone ([5]; wild-type rice roots, Pi starvation, 6 h (FIGS. 12A-12D)): significantly lower | transcript levels of SL biosynthesis enzymes D27, CCD7, CCD8 and CO [5]: pronounced decrease | reduction of the number of emerging Striga plants compared to the untreated control [1]: 55% | spore germination rate ([2]; 5 μM and 50 nM, 3 and 7 days): no effect | decrease of Striga seed germination rate [3]: ~46% | effect on 4-deoxyorobanchol relative to Zaxinone [4, 8]: significantly stronger | effect on SL levels relative to Zaxinone [4, 8]: reduced SL levels more than zaxinone | SL level of the root exudate [4]: obvious effect | root surface area and root numbers of WT plants compared with zaxinone treatment [7]: increased more | presence in shoots of rice plants fed through roots [6]: detected

CC(=O)c1cccc(-c2cccc(-c3cccc(-c4cccc(-c5ccc(O)cc5)c4)c3)c2)c1 [MZ6]
SL level of the root exudate [4]: did not show significant activity

CC(=O)/C=C/c1cccc(Oc2ccc(O)cc2)c1 [MZ2, (E)-4-(3-(4-hydroxyphenoxy)phenyl)but-3-en-2-one]
transcript levels of SL biosynthesis enzymes D27, CCD7, CCD8 and CO [5]: downregulating; also recorded: reduced | SL level / release in root exudates (4-DO, Oro) [4]: significant decrease | SL level of the root exudate [4]: did not affect | conversion into the methoxy mimic (MZ3 or MZ5) in rice plants [6]: not detected
